“Also recorded” adds a separate entry of the source. Where a name gives a salt, the structure may show the parent alone.
Key:
Format in all cases: physicochemical
[1] = Approximate solubility of PQQ disodium salt in various solvents by gravimetric analysis; settings: for Solubility @ 25: 25° C.; for Solubility @ 50: 50° C.
Procedure: Before preparation of the crystals, conventional methods may be employed to measure the solubility of the PQQ disodium salt in different solvents, and subsequently appropriate solvent(s) may be selected to prepare the crystals of the invention. For example, the following method may be used to measure the solubility of the PQQ disodium salt in various solvents:
(1) At 25° C. and 50° C. respectively, about 25 mg PQQ disodium salt is stirred in 1 ml solvent to equilibrium for at least 24 h, and subsequently the solution is filtered, wherein the solvent in the liquid part is volatized under vacuum completely. The approximate solubility of the raw material in the solvent is determined by gravimetric analysis.
Gravimetric analysis: a volume (generally 0.5 mL) of the filtrate is weighed accurately and placed in a vessel which has already been dried and weighed, wherein the weight of the vessel is indicated as Mhollow. Subsequently, the total weight of the vessel and the filtrate is measured and indicated as M0. Then, the weight of the filtrate is M0−Mhollow. After the solvent is volatized completely under vacuum, the total weight is measured accurately again (indicated as M1). Then, the mass of the precipitated solid is M1−Mhollow, and the mass of the solvent is M0−M1. As such, the approximate solubility of the raw material in this solvent is: X(g)=[(M1−Mhollow)/(M0−M1)]×100(g)

[2] = Hygroscopic analysis (DVS); settings: 25° C.; for moisture absorption / hygroscopicity compared among crystal forms (overlay of DVS graphs) / hygroscopicity (in words): disodium salt; for hygroscopicity compared among crystal forms (overlay of DVS graphs): at 80% RH; for variation of hygroscopicity: conventional storage environment of 40-80 RH
Procedure: 4. Hygroscopic Analysis As indicated by DVS (FIG. 4), crystalline Form A absorbs 1.6% of moisture at 40% RH, 2.3% at 65% RH, and 2.8% at 80% RH. […] Instrument model: SMS DVS Intrinsic, 0-95% RH, Temperature: 25° C. As described above, crystal E was prepared according to Example 1 in patent literature 1. The hygroscopic analysis graph of crystal E (shown in FIG. 21) was obtained using the DVS test method and conditions used in the foregoing examples, and its hygroscopic property was compared with those of crystals A and B according to the invention (the results are shown in FIG. 22).

[3] = Solvent content (thermogravimetric analysis, Table 3); settings: disodium salt
Procedure: 2. Thermogravimetric Analysis
(the theoretical weight loss of a water molecule is 4.6%). It is possibly a hydrate. The peak temperature of decomposition is 312.5° C.
Instrument model: Netzsch TG 209F3
Temperature range: 30-400° C.
Protection gas: 15 mL/min

[4] = Crystal form stability (Table 3); settings: disodium salt
[5] = solvent acetonitrile:methyl isobutyl ketone (1.1)
[6] = solvent acetonitrile:methyl tert-butyl ether (1:1), first line (r31)
[7] = solvent acetonitrile:methyl tert-butyl ether (1:1), second line (r33)
[8] = solvent acetonitrile:toluene (1:1)
[9] = solvent acetonitrile:water (1:1)
[10] = solvent methyl tert-butyl ether
[11] = solvent tetrahydrofuran:water (1:1)

## O=C(O)c1cc(C(=O)O)c2c(n1)C(=O)C(=O)c1cc(C(=O)O)[nH]c1-2 [PQQ disodium salt, pyrroloquinoline quinone disodium salt]
[1]; solvent acetone:water (1:1)
  Solubility @ 25: 0.53 g/100 g
  Solubility @ 50: 1.36 g/100 g
[1]; solvent acetone
  Solubility @ 25: 0.13 g/100 g
  Solubility @ 50: 0.05 g/100 g
[1]; [5]
  Solubility @ 25: 0.09 g/100 g
  Solubility @ 50: 0.04 g/100 g
[1]; [6]
  Solubility @ 25: 0.10 g/100 g
  Solubility @ 50: 0.04 g/100 g
[1]; [7]
  Solubility @ 25: 0.03 g/100 g
  Solubility @ 50: 0.02 g/100 g
[1]; [8]
  Solubility @ 25: 0.04 g/100 g
  Solubility @ 50: 0.00 g/100 g
[1]; [9]
  Solubility @ 25: 0.22 g/100 g
  Solubility @ 50: 0.14 g/100 g
[1]; solvent acetonitrile
  Solubility @ 25: 0.01 g/100 g
  Solubility @ 50: 0.05 g/100 g
[1]; solvent chloroform
  Solubility @ 25: 0.02 g/100 g
  Solubility @ 50: 0.03 g/100 g
[1]; solvent dichloromethane
  Solubility @ 25: 0.02 g/100 g
  Solubility @ 50: 0.04 g/100 g
[1]; solvent ethanol:water (1:1)
  Solubility @ 25: 0.10 g/100 g
  Solubility @ 50: 0.10 g/100 g
[1]; solvent ethanol
  Solubility @ 25: 0.08 g/100 g
  Solubility @ 50: 0.11 g/100 g
[1]; solvent ethyl acetate
  Solubility @ 25: 0.11 g/100 g
  Solubility @ 50: 0.09 g/100 g
[1]; solvent ethyl ether
  Solubility @ 25: 0.06 g/100 g
  Solubility @ 50: 0.01 g/100 g
[1]; solvent heptane
  Solubility @ 25: 0.02 g/100 g
  Solubility @ 50: 0.11 g/100 g
[1]; solvent hexane
  Solubility @ 25: 0.06 g/100 g
  Solubility @ 50: 0.02 g/100 g
[1]; solvent isopentanol
  Solubility @ 25: 0.02 g/100 g
  Solubility @ 50: 0.00 g/100 g
[1]; solvent isopropanol
  Solubility @ 25: 0.09 g/100 g
  Solubility @ 50: 0.08 g/100 g
[1]; solvent isopropyl acetate
  Solubility @ 25: 0.36 g/100 g
  Solubility @ 50: 0.03 g/100 g
[1]; solvent methanol:water (1:1)
  Solubility @ 25: 0.15 g/100 g
  Solubility @ 50: 0.13 g/100 g
[1]; solvent methanol
  Solubility @ 25: 0.09 g/100 g
  Solubility @ 50: 0.11 g/100 g
[1]; solvent methyl ethyl ketone
  Solubility @ 25: 0.16 g/100 g
  Solubility @ 50: 0.06 g/100 g
[1]; solvent methyl isobutyl ketone
  Solubility @ 25: 0.05 g/100 g
  Solubility @ 50: 0.07 g/100 g
[1]; [10]
  Solubility @ 25: 0.05 g/100 g
  Solubility @ 50: 0.03 g/100 g
[1]; solvent nitromethane
  Solubility @ 25: 0.01 g/100 g
  Solubility @ 50: 0.02 g/100 g
[1]; [11]
  Solubility @ 25: 0.24 g/100 g
  Solubility @ 50: 0.29 g/100 g
[1]; solvent tetrahydrofuran
  Solubility @ 25: 0.15 g/100 g
  Solubility @ 50: 0.24 g/100 g
[1]; solvent toluene
  Solubility @ 25: 0.02 g/100 g
  Solubility @ 50: 0.05 g/100 g
[1]; solvent water
  Solubility @ 25: 0.37 g/100 g
  Solubility @ 50: 0.89 g/100 g

## O=C(O)c1cc(C(=O)O)c2c(n1)C(=O)C(=O)c1cc(C(=O)O)[nH]c1-2 [crystal E, pyrroloquinoline quinone disodium salt]
[2]; 40% RH
  moisture absorption: 11.8%
[2]; 65% RH
  moisture absorption: 13.0%
[2]; 80% RH
  moisture absorption: 13.6%
[2]
  hygroscopicity compared among crystal forms (overlay of DVS graphs): largest hygroscopicity
  variation of hygroscopicity: less than 2%
  hygroscopicity (in words): rather hygroscopic; also recorded: slightly hygroscopic

## O=C(O)c1cc(C(=O)O)c2c(n1)C(=O)C(=O)c1cc(C(=O)O)[nH]c1-2 [crystalline Form A, pyrroloquinoline quinone disodium salt]
[3]
  Solvent content (%): 7.4%
[4]
  Crystal form stability: Stable
[2]; 40% RH
  moisture absorption: 1.6%
[2]
  hygroscopicity compared among crystal forms (overlay of DVS graphs): smallest hygroscopicity
  variation of hygroscopicity: less than 2%
  hygroscopicity (in words): only slightly hygroscopic

## O=C(O)c1cc(C(=O)O)c2c(n1)C(=O)C(=O)c1cc(C(=O)O)[nH]c1-2 [crystalline Form B, pyrroloquinoline quinone disodium salt]
[3]
  Solvent content (%): 12.2%
[4]
  Crystal form stability: Stable
[2]; 40% RH
  moisture absorption: 7.3%
[2]
  hygroscopicity compared among crystal forms (overlay of DVS graphs): medium hygroscopicity; also recorded: relatively large hygroscopicity

## O=C(O)c1cc(C(=O)O)c2c(n1)C(=O)C(=O)c1cc(C(=O)O)[nH]c1-2 [crystalline Form C, pyrroloquinoline quinone disodium salt]
[3]
  Solvent content (%): 11.4%
[2]; 40% RH
  moisture absorption: 7.8%
[2]
  hygroscopicity compared among crystal forms (overlay of DVS graphs): largest hygroscopicity
  hygroscopicity (in words): highly hygroscopic
